According to patent publication US11091531B2, “Antigen-specific helper T-cell receptor genes” (International Institute of Cancer Immunology, Inc., priority 2012, dated 2021):
Peptide text beside a SMILES is read from it.

Tested on: HLA-DPB1*05:01-positive TF-1 cells
Assay: 51Cr releasing assay with target cells pretreated with granzyme-inhibitor
Assay type: cell-based, human
Conditions: target cells pretreated with 100 μM for 2 hours; p<0.05; FIG. 4F
Protocol: To confirm whether the cytotoxic activity of the WT1332-TCR-transduced CD4^+ T-cells was dependent on the granzyme B/perforin pathway, HLA-DPB1*05:01-positive TF-1 cells pretreated with 100 μM of a granzyme-inhibitor, Ac-IETD-Cho, were used as target cells. The HLA-DPB1*05:01-positive TF-1 cells were pretreated with 100 μM of Ac-IETD-Cho or DMSO (control) for 2 hours, then labeled with ^51Cr, and incubated with WT1332-TCR-transduced CD4^+ T-cells, and ^51Cr releasing assay was performed.

CC[C@H](C)[C@H](NC(C)=O)C(=O)N[C@@H](CCC(=O)O)C(=O)N[C@H](C(=O)N[C@H](C=O)CC(=O)O)[C@@H](C)O [Ac-IETD-Cho] (Ac-IETD-aldehyde)
cytotoxic activity of WT1332-TCR-transduced CD4+ T-cells on pretreated target cells compared with DMSO: markedly lower
